Values of other authors as cited in patent publication US20060014801A1, “Prevention and treatment of cognitive impairment using (R)-(-)-5-methyl-1-nicotynoyl-2-pyrazoline (MNP) and analogs” (The Johns Hopkins University, priority 2002, published 2006).

Tested on: aged rats
Conditions: cited from earlier work

## CO/N=C(\C(=O)N[C@@H]1C(=O)N2C(C(=O)O)=C(CSc3nc(=O)c(=O)[nH]n3C)CS[C@H]12)c1csc(N)n1 [ceftriaxone]
  Cognitive function: improvements of cognitive function
